In general, IC50 refers to the concentration that gives 50% inhibition. By AUC is commonly meant the area under the concentration-time curve, a measure of exposure. Usually Cmax stands for the maximum level reached in the sampled fluid or tissue. A word on the inhibition: it is the relative decrease from the control value, in per cent.

The record followed here is ChEMBL document CHEMBL1135148, “Synthesis and profile of SCH351591, a novel PDE4 inhibitor” (Bioorg Med Chem Lett, 2002).

Data set [1] has as its target T1, Phosphodiesterase 4 (Homo sapiens, UniProt P27815+Q08499+Q07343+Q08493). Description: Inhibition of Phosphodiesterase 4 from human U937 cells. Type of data set: cell-based. The note with it: u-937.
Data set [2] deals with T1, Phosphodiesterase 4. Description: Relative inhibition of phosphodiesterase 4 and rolipram binding. The class given is protein assay.
The target in data set [3] is Phosphodiesterase 4 (Rattus norvegicus, UniProt P14270+P14646+P14644+P54748). Description: Inhibition of rolipram binding to PDE4 of rat brain.
A short description of data set [4]: AUC in guinea pig after 3mg/kg oral dose. The class given is ADME, organism-based, Cavia porcellus, Plasma.
A short description of data set [5]: AUC in rat after 3mg/kg oral dose. The class given is ADME, organism-based. Particulars: plasma.
Data set [6] in a line: Cmax in guinea pig after 3mg/kg oral dose. The arrangement: dose 3 mg/kg, route oral. Particulars: in vivo. Type of data set: ADME, organism-based, Cavia porcellus.
The target of data set [7] is Phosphodiesterase 1 (Homo sapiens) (UniProt P54750+Q01064+Q14123). Description: Inhibition of recombinant Phosphodiesterase 1. The class given is protein assay. The note with it: concentration not given here.
Data set [8] deals with Phosphodiesterase 3 (Homo sapiens) (UniProt Q14432+Q13370). Description: Inhibition of Phosphodiesterase 3 from human platelets. Particulars: concentration not given here.
In data set [9] the target is cGMP-specific 3',5'-cyclic phosphodiesterase (Homo sapiens) (UniProt O76074). Description: Inhibition of Phosphodiesterase 5 from human platelets. Particulars: concentration not given here.
Data set [10] can be described thus: Cmax in rat after 3mg/kg oral dose. Set-up: dose 3 mg/kg, route oral. Type of data set: ADME, organism-based. The note with it: in vivo.
Data set [11] concerns the target T1, Phosphodiesterase 4. Description: Inhibition of Phosphodiesterase 4. Type of data set: protein assay.
Data set [12] has as its target Phosphodiesterase 7 (Homo sapiens) (UniProt Q13946+Q9NP56). Description: Inhibition of Phosphodiesterase 7 from human T-lymphocyte cell line. Particulars: concentration not given here.
The target of data set [13] is cGMP-dependent 3',5'-cyclic phosphodiesterase (Homo sapiens) (UniProt O00408). Description: Inhibition of Phosphodiesterase 2. Particulars: concentration not given here.
Chain of cGMP-dependent 3',5'-cyclic phosphodiesterase (Homo sapiens) (O00408 whole entry): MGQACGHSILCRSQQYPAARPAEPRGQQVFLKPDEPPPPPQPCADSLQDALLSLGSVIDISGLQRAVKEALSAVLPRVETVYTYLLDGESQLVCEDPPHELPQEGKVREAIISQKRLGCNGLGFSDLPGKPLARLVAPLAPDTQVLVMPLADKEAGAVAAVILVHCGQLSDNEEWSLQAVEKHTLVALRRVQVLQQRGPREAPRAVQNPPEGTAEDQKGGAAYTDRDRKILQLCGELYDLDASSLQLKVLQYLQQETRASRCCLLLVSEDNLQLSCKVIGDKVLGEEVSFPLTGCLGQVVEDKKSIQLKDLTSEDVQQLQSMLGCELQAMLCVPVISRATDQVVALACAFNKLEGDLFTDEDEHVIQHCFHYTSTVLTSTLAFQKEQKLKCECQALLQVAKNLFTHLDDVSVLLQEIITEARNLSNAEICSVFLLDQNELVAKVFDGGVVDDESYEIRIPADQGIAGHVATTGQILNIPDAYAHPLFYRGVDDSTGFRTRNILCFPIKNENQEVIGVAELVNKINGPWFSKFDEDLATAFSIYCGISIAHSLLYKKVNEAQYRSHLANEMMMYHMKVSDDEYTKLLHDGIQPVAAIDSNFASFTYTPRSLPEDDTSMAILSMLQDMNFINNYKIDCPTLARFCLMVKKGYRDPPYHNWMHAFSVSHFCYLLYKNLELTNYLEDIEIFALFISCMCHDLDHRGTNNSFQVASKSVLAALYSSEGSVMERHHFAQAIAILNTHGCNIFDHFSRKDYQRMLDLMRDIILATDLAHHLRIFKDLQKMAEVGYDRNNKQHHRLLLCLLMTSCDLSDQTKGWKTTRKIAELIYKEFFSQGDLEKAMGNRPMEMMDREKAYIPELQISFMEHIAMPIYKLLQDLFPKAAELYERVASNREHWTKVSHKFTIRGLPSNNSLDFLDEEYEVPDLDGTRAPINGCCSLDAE

Chain of Phosphodiesterase 7 (Homo sapiens) (Q13946 whole entry, looked up): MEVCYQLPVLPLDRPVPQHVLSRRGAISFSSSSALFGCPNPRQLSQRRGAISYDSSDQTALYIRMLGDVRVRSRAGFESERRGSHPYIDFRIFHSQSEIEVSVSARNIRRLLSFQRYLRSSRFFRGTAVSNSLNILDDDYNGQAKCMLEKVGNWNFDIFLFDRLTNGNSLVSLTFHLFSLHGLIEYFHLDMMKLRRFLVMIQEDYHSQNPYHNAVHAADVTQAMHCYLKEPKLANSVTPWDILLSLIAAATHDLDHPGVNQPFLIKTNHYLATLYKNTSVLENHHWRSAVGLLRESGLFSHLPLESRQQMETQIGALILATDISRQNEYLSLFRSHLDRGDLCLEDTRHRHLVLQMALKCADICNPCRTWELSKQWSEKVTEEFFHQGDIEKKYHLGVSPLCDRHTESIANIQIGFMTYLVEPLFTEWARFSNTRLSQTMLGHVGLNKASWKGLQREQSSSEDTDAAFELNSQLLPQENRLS
Chain of Phosphodiesterase 7 (Homo sapiens) (Q9NP56 whole entry, looked up): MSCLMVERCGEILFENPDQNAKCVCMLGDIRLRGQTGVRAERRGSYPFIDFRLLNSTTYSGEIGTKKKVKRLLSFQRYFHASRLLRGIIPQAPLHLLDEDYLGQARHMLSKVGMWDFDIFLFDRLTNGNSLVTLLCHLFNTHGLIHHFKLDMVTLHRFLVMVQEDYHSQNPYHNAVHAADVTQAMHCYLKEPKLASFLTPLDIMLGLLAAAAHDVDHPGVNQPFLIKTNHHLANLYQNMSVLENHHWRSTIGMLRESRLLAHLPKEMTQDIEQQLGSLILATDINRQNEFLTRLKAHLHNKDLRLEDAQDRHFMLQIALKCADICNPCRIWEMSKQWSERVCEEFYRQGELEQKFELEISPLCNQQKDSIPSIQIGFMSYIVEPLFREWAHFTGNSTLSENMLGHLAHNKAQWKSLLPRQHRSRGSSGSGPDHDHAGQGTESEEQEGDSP

Take `COc1ccc(C(=O)Nc2cc[n+]([O-])cc2Cl)c2ccc(C(F)(F)F)nc12`: the IC50 is 0.24 µM in data set [1] and 0.37 µM in data set [3]. Further, the Ratio in data set [2] is 0.65.
For `COc1ccc(C(=O)Nc2c(C)c[n+]([O-])cc2C)c2ccc(C(F)(F)F)nc12` the same measures were 0.15 µM, 0.38 µM and 0.39.
For the compound `COc1ccc(C(=O)Nc2ccncc2Cl)c2ccc(C(F)(F)F)nc12`, the IC50 stood at 1.12 µM in [1] and 0.11 µM in data set [3]. Also, the Ratio in data set [2] amounted to 10.
For `COc1ccc(C(=O)Nc2c(Cl)cncc2Cl)c2ccc(C(F)(F)F)nc12`, the Ratio in [2] is 0.66. Further, in [3], the IC50 came out at 0.077 µM. The area under the curve (AUC) in [4] (in vivo) came to 1174 ng·h/mL; in data set [4] (plasma, read-out: AUC), 1170 ng·h/mL; in data set [5], 6860 ng·h/mL. The compound further registered a Cmax in data set [6] of 380 ng/mL.
With `COc1ccc(C(=O)Nc2c(F)cncc2F)c2ccc(C(F)(F)F)nc12`, the values for the IC50 in data set [1] and in [3] were 0.035 µM and 0.038 µM, respectively. In [2], the Ratio turned out to be 0.94.
With `COc1ccc(C(=O)Nc2c(C)cncc2C)c2ccc(C(F)(F)F)nc12`, the results for the IC50 in data set [1] and in data set [3] were 0.12 µM and 0.058 µM, respectively. Also, the Ratio in [2] was 2.1.
For `COc1ccc(C(=O)Nc2c(F)c[n+]([O-])cc2F)c2ccc(C(F)(F)F)nc12` the same measures were 0.07 µM, 0.06 µM and 1.17.
Regarding `COc1ccc(C(=O)Nc2c(Cl)c[n+]([O-])cc2Cl)c2ccc(C(F)(F)F)nc12` [SCH-351591], the inhibition amounted to 15% in data set [7]; 31% in [8]; 5% in [9]; 10% in [12]; 0% in [13]. Besides, the IC50 in data set [1] was 0.06 µM; in data set [3], 0.15 µM; in data set [11] it was 0.06 µM. For the same compound, the Ratio in [2] is 0.4. The Cmax in data set [10] was found to be 3060 ng/mL; in [6], 1390 ng/mL. Moreover, the AUC in data set [4] (in vivo) was 15757 ng·h/mL; in data set [4] (plasma, read-out: AUC), 15800 ng·h/mL; in data set [5], 50500 ng·h/mL.
